The series can be described thus: Example 6: Pharmacokinetic characterisation after s.c. administration. Format: in vivo, rat (Sprague Dawley or Wistar). As to conditions: rat, 70 nmol/kg. In a few lines:
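Male Sprague Dawley or Wistar rats (about 250-350 g) received a single s.c. dose of 70 nmol/kg in 10 mM phosphate, 0.8% NaCl, 0.05% Polysorbate 20, pH 6.0. Plasma sampled from 15 min to 4 h, analysed by SPE and LC-MS/MS; non-compartmental AUCinf, Cmax and Tmax from mean concentrations.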

The term Cmax denotes the peak of the concentration-time curve.

As to “H-P[Nle]E[Nle]RC(1)SASVEC(2)KQKC(3)LAAIGSIFGKC(1)[Nle]NKKC(2)KC(3)YPR-OH [Peptide 100]”, under “plasma”, the AUCINF was 0.112 µM·h and the highest level (Cmax) was 52.6 nM. The substance also yielded a T1/2 (plasma terminal elimination half-life) of 1.04 h.

Values taken from patent US20260325605A1, “INHIBITORS” (Zealand Pharma A/S, priority 2022, published 2026).
